Data set [1] addresses Protein arginine N-methyltransferase 6 (Homo sapiens, UniProt Q96LA8). Description: Inhibition of PRMT6 (unknown origin) by scintillation proximity assay. Background: SPA uses beads or plates that emit light when radiolabelled molecules are held near them.
Data set [2] can be described thus: Lipophilicity, logP of compound. In kind it is physicochemical. The note with it: octanol/water.
Data set [3] has as its target T1, Histone-arginine methyltransferase CARM1 (Homo sapiens, UniProt Q86X55).
T1 sequence (Q86X55 whole entry): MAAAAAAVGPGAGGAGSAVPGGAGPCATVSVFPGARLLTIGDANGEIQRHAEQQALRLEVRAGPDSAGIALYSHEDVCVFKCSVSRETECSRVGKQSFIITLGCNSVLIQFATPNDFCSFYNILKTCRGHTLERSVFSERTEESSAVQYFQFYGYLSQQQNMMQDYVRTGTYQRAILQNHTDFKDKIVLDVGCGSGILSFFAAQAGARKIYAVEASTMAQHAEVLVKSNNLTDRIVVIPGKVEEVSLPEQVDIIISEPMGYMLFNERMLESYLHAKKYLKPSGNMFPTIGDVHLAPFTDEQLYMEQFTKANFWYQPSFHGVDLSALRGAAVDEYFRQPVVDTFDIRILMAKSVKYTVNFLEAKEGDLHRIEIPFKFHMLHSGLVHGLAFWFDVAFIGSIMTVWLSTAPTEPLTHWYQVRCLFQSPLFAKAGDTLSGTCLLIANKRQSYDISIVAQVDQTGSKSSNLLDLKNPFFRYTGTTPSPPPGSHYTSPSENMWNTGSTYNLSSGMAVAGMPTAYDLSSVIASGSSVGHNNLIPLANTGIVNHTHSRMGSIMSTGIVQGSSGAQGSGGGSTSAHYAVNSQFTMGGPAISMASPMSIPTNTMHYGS
The experiment in a line: Inhibition of CARM1 (unknown origin).

Data set [4] addresses T1, Histone-arginine methyltransferase CARM1. Description: Inhibition of PRMT4 (unknown origin).
In data set [5] the test system is DU-145. Description: Antiproliferative activity against human DU-145 cells assessed as reduction in cell viability incubated for 72 hrs by MTT assay. Format: functional, cell-based. The conditions noted are these: DU-145, 72 h. On the technique in general: Formazan colour is commonly taken as a measure of viable cells.
Data set [6] addresses T1, Histone-arginine methyltransferase CARM1. The experiment in a line: Inhibition of human N-terminal 6xHis-tagged CARM1 catalytic domain (140 to 480 residues) using histone H3 as substrate and SAM as cofactor by radiometric HotSpot assay.
For data set [7], the species on record is Homo sapiens. The experiment in a line: Selectivity ratio of IC50 for human PRMT6 to IC50 for human PRMT4.
Data set [8] addresses Protein arginine N-methyltransferase 5 (Homo sapiens, UniProt O14744). The experiment in a line: Inhibition of PRMT5 (unknown origin).
Data set [9] concerns the target T1, Histone-arginine methyltransferase CARM1. The experiment in a line: Inhibition of GST-tagged CARM1 (unknown origin) extracted form Escherichia coli BL21 (DE3) by MTase-Glo reagent based luminometer analysis.
In data set [10] the test system is MCF7. Description: Cytotoxicity against human MCF7 cells assessed as reduction in cell viability by MTS assay. Format: functional, cell-based.
Data set [11] has as its system MV4-11. The experiment in a line: Antiproliferative activity against human MV4-11 cells assessed as reduction in cell viability. In kind it is functional, cell-based.
For data set [12], the target named is Protein arginine N-methyltransferase 3 (Homo sapiens, UniProt O60678). Description: Inhibition of PRMT3 (unknown origin).
Sequence of Protein arginine N-methyltransferase 3 (O60678 whole entry): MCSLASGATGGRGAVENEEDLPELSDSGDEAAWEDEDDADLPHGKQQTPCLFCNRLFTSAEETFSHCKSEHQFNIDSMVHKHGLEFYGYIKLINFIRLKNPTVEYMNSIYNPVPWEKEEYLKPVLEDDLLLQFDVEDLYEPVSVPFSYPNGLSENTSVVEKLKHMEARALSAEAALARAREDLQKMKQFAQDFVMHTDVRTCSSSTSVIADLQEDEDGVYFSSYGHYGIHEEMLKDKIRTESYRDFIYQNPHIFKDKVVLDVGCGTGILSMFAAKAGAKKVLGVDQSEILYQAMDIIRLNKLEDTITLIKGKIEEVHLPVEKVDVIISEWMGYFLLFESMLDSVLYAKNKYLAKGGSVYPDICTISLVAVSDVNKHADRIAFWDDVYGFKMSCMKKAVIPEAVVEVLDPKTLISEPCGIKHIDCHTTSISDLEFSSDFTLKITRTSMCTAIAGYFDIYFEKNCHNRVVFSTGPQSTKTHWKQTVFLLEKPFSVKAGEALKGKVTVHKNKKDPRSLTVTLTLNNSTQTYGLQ
In data set [13] the test system is ASPC1. Description: Antitumor activity in human ASPC1 cells xenografted in BALB/c nude mouse assessed as tumor growth inhibition at 100 mg/kg, relative to control. Format: functional. Set-up: scale not given: the % may be the effect or the level left.
Data set [14] has as its target T1, Histone-arginine methyltransferase CARM1. The experiment in a line: Inhibition of C-terminal His-tagged human CARM1 catalytic domain (135 to 479 residues) extracted from Escherichia coli BL21 CodonPlus (DE3)-RIL cells using (H3(3-31)) as substrate by enzymatic assay.

As usually defined, the IC50 is the point on the concentration scale where inhibition reaches its midpoint. As a reminder, the logP is the decadic logarithm of the partition coefficient of the neutral form, usually between octanol and water.

Sequence of Protein arginine N-methyltransferase 5 (O14744 whole entry): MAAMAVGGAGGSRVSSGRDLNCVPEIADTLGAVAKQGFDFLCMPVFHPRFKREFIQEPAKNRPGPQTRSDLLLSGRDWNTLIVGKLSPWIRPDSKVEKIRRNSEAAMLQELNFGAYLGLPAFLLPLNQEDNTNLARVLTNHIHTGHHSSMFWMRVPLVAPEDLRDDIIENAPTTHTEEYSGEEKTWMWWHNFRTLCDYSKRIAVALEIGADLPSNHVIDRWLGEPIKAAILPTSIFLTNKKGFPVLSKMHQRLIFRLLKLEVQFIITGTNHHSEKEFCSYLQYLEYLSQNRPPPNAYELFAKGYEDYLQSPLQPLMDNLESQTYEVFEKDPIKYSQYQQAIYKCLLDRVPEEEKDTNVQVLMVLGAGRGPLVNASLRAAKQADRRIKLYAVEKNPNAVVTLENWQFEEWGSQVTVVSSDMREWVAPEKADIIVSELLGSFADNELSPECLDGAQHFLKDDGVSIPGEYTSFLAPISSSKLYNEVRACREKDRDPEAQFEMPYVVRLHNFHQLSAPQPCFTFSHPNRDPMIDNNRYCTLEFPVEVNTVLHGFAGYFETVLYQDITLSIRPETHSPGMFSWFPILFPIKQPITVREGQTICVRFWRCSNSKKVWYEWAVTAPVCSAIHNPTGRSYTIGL
Sequence of Protein arginine N-methyltransferase 6 (Q96LA8 whole entry): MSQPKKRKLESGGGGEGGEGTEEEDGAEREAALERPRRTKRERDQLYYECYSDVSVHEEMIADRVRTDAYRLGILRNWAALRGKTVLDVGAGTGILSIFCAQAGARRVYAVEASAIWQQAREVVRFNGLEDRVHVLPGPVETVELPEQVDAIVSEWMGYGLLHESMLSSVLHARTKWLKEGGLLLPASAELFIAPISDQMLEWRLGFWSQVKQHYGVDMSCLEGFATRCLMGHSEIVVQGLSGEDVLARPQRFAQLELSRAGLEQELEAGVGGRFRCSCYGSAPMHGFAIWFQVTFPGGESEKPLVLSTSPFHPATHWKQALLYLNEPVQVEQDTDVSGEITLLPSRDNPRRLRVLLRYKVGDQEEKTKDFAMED

In turn, `NCCN1CCC(Cc2ccccc2)CC1` displayed an IC50 in [1] of 300 nM.
In data set [2], `C[C@H](N)C(=O)NCc1cccc(-n2cc(C(F)(F)F)cc2C(=O)NCc2ccccc2)c1` came in with a logP of 3.8. Moreover, in data set [3], half-maximal inhibition (IC50) was put at 7230 nM.
For `OCCNCCNCc1ccccc1OCc1ccc(Cl)cc1Cl`, inhibition in data set [3] was half-maximal at 42400 nM (IC50).
In the case of `C[C@H](N)C(=O)Nc1ccc2[nH]nc(-c3cccc(S(=O)(=O)N(C)C)c3)c2c1`, the IC50 in data set [4] worked out at 60 nM; in [3], 500 nM.
For the compound `CNCCNCc1cccc(-c2nc(Nc3cccc(OCCCCCCC(=O)NO)c3)c(C)c(-c3ccnc4[nH]ccc34)n2)c1`, the IC50 in data set [5] was < 1000 nM.
`N=C(NCCCN(CCNC(=O)NCc1ccccc1)C[C@H]1O[C@@H](n2cnc3c(N)ncnc32)[C@H](O)[C@@H]1O)Nc1cccc(Br)c1`: the IC50 in data set [3] is < 1 nM.
Compound `CCOC(=O)c1cc(C(=O)NCc2ccccc2CCC(F)(F)F)n(-c2cccc(NC(=O)[C@H](C)N)c2)c1` displayed a log partition coefficient (logP) in [2] of 4.48. The same compound displayed an IC50 in data set [3] of 780 nM.
In data set [3], `C[S+](CC[C@H](N)C(=O)[O-])C[C@H]1O[C@@H](n2cnc3c(N)ncnc32)[C@H](O)[C@@H]1O` (stereo partly drawn) [ADEMETIONINE] returned an IC50 of 2.8 nM.
Compound `COC1CCC(CCNC(=O)[C@H](CC[C@H](CNCc2ccccc2)C[C@H]2O[C@@H](n3cnc4c(N)ncnc43)[C@H](O)[C@@H]2O)NC(=O)CC(C)(C)C2=C(C)C(=O)C(C)=C(C)C2=O)CC1` (stereo partly drawn) gave an IC50 in data set [6] of 43 nM.
For `C[C@H](N)C(=O)Nc1ccc2[nH]cc(-c3cccc(S(C)(=O)=O)c3)c2c1`, the Ratio IC50 in data set [7] amounted to 197.
Regarding `NC(=O)[C@@H](N)CCCNCNCCCSC[C@H]1O[C@H](n2cnc3c(N)ncnc32)[C@H](O)[C@@H]1O`, in data set [8], the IC50 stood at 0.42 nM.
For `CNCC(=O)N1CCOc2c(O)cc(-c3cccc(Cl)c3)cc2C1`, the IC50 in [9] was found to be 42200 nM; in [10], 8260 nM.
As for `CNCCN(C)Cc1ccccc1OCc1cccc(Cl)c1Cl`, in data set [11], the IC50 was 4550 nM.
Consider `C[C@H](N)C(=O)Nc1ccc2c(c1)c(-c1cccc(S(=O)(=O)N(C)C)c1)cn2C`, for which the Ratio IC50 in data set [7] was > 500. The IC50 in data set [3] is < 2 nM.
As to `Nc1ncnc2c1ncn2[C@@H]1O[C@H](CSCC[C@H](N)C(=O)O)[C@@H](O)[C@H]1O` [S-ADENOSYLHOMOCYSTEINE], the IC50 in [12] was < 5 nM.
On to `CNC[C@@H](O)COc1ccc(Cl)c(-c2nc(-c3c(C)noc3C)c(C)c(N3CC4(CCN(C(=O)OC)CC4)C3)n2)c1`, for which, in data set [13], the Activity is 52%.
`NCCCN(CCCNc1ccccn1)C[C@@H]1O[C@H](n2cnc3c(N)ncnc32)[C@@H](O)[C@H]1O` gave an IC50 in data set [14] of 1140 nM.
In [14], `Nc1ncnc2c1ncn2[C@H]1O[C@@H](CN(CCCNc2ccccn2)CC[C@H](N)C(=O)O)[C@H](O)[C@@H]1O` registered an IC50 of 1110 nM.

The values are drawn from ChEMBL document CHEMBL6153026, “Small-Molecule Modulators Targeting Coactivator-Associated Arginine Methyltransferase 1 (CARM1) as Therapeutic Agents for Cancer Treatment: Current Medicinal Chemistry Insights and Emerging Opportunities” (J Med Chem, 2025).
